# Source: US20190194179A1, “ANTIBIOTIC COMPOUNDS” (DISCUVA LTD., priority 2016, published 2019)
# System: Neisseria gonorrhoeae
# Assay: EC50 determination: plate-based broth growth assay (absorbance at 600 nm) of Neisseria gonorrhoeae
# Type: cell-based
# Settings: absorbance 600 nm after 20 hours at 37° C./5% CO2, read-out: IC50 (Inhibitory concentration) against Neisseria gonorrhoeae
# How it was run: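 Mid-log culture diluted to ~10^5 cells/ml as inoculum and grown 20 hours at 37° C./5% CO2 across a 10-point compound dilution series. Growth read as absorbance at 600 nm; EC50 taken from transformed data as the concentration giving 50% response relative to no-compound controls.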
row,Compound,IC50 [nM]
1,"Cc1nnc(Nc2nc3cnc(C(F)(F)F)cc3o2)o1 [Example 53, N-(5-Methyl-1,3,4-oxadiazol-2-yl)-6-(trifluoromethyl)oxazolo[4,5-c]pyridin-2-amine]",≤ 10000
2,"c1nnc(Nc2nc3ccc(N4CCCCC4)cc3o2)o1 [Example 184, N-(1,3,4-Oxadiazol-2-yl)-6-(piperidin-1-yl)benzo[d]ox-azol-2-amine]",≤ 1000
3,"Cc1nnc(Nc2nc3ccc(F)cc3o2)o1 [Example 54, 6-Fluoro-N-(5-methyl-1,3,4-oxadiazol-2-yl)benzo[d]oxazol-2-amine]",≤ 1000
4,"FC(F)(F)c1cc2oc(Nc3nnc(C4CC4)o3)nc2cn1 [Example 51, N-(5-Cyclopropyl-1,3,4-oxadiazol-2-yl)-6-(trifluoromethyl)oxazolo[4,5-c]pyridin-2-amine]",≤ 1000
5,"Clc1ccc2nc(Nc3ccon3)oc2c1 [Example 46, 6-Chloro-N-(isoxazol-3-yl)benzo[d]oxazol-2-amine]",≤ 1000
6,"Cc1nnc(Nc2nc3cc(C(F)(F)F)ccc3o2)s1 [Example 111, N-(5-Methyl-1,3,4-thiadiazol-2-yl)-5-(trifluoromethyl)benzo[d]oxazol-2-amine]",≤ 1000
7,"FC(F)(F)Oc1ccc2nc(Nc3nnco3)oc2c1 [Example 210, N-(1,3,4-Oxadiazol-2-yl)-6-(trifluoromethoxy) benzo[d]ox-azol-2-amine]",≤ 100
8,"FC(F)(F)c1ccc2oc(Nc3ncns3)nc2c1 [Example 23, N-(1,2,4-Thiadiazol-5-yl)-5-(trifluoromethyl)benzo[d]oxazol-2-amine]",≤ 1000
9,"Clc1ccc2nc(Nc3nnc[nH]3)oc2c1 [Example 150, 6-Chloro-N-(4H-1,2,4-triazol-3-yl)benzo[d]oxazol-2-amine]",≤ 1000
10,"Clc1cc2nc(Nc3nnco3)oc2cc1Cl [Example 152, 5,6-Dichloro-N-(1,3,4-oxadiazol-2-yl)benzo[d]oxazol-2-amine]",≤ 100
11,"CN1CCC[C@H]1c1nnc(Nc2nc3cc(C(F)(F)F)ccc3o2)o1 [Example 126, (S)-N-(5-(1-Methylpyrrolidin-2-yl)-1,3,4-oxadiazol-2-yl)-5-(trifluoromethyl)benzo[d]oxazol-2-amine]",≤ 1000
12,"NC(=O)c1csc(Nc2nc3ccc(C(F)(F)F)cc3o2)n1 [Example 101, 2-((6-(trifluoromethyl)benzo[d]oxazol-2-yl)amino)thiazole-4-carboxamide]",≤ 1000
13,"CCOC(=O)c1nnc(Nc2nc3cc(C(F)(F)F)ccc3[nH]2)o1 [Example 56, Ethyl 5-((5-(trifluoromethyl)-1H-benzo[d]imidazol-2-yl)amino)-1,3,4-oxadiazole-2-carboxylate]",≤ 1000
14,"Cc1nnc(Nc2nc3cc(C(F)(F)F)ccc3o2)n1C [Example 143, N-(4,5-dimethyl-4H-1,2,4-triazol-3-yl)-5-(trifluoromethyl)benzo[d]oxazol-2-amine]",≤ 1000
15,"COC(=O)c1ccc2[nH]c(Nc3nnc(C)o3)nc2c1 [Example 84, Methyl 2-((5-methyl-1,3,4-oxadiazol-2-yl)amino)-1H-benzo[d]imidazole-5-carboxylate]",≤ 10000
16,"FC(F)(F)c1ccc2oc(Nc3nnc(CN4CCCC4)[nH]3)nc2c1 [Example 128, N-(5-(Pyrrolidin-1-ylmethyl)-4H-1,2,4-triazol-3-yl)-5-(trifluoromethyl)benzo[d]oxazol-2-amine]",≤ 1000
17,"Clc1ccc2nc(Nc3nnc(C4CC4)o3)oc2c1 [Example 175, 6-Chloro-N-(5-cyclopropyl-1,3,4-oxadiazol-2-yl)benzo[d]ox-azol-2-amine]",≤ 100
18,"CC(C)Oc1ccc2nc(Nc3nnco3)oc2c1 [Example 196, 6-Isopropoxy-N-(1,3,4-oxadiazol-2-yl)benzo[d]oxazol-2-amine]",≤ 100000

# The next lines start with the values.
row,IC50 [nM],Compound
1,≤ 1000,"Fc1ccc2nc(Nc3nnco3)oc2c1 [Example 63, 6-Fluoro-N-(1,3,4-oxadiazol-2-yl)benzo[d]oxazol-2-amine]"
2,≤ 1000,"COC(=O)c1ccc2nc(Nc3nnco3)oc2c1 [Example 178, Methyl 2-((1,3,4-oxadiazol-2-yl)amino)ben-zo[d]oxazole-6-carboxylate]"
3,≤ 1000,"CN1CCc2nc(Nc3nc4cc(C(F)(F)F)ccc4o3)oc2C1 [Example 155, 5-Methyl-N-(5-(trifluoromethyl)benzo[d]oxazol-2-yl)-4,5,6,7-tetrahydrooxazolo[5,4-c]pyridin-2-amine]"
4,≤ 100,"Cc1cc2nc(Nc3nnco3)oc2cc1Cl [Example 188, 6-Chloro-5-methyl-N-(1,3,4-oxadiazol-2-yl)benzo[d]ox-azol-2-amine]"
5,≤ 1000,"FC1(F)CCN(Cc2nnc(Nc3nc4cc(C(F)(F)F)ccc4o3)o2)C1 [Example 74, N-(5-((3,3-diFluoropyrrolidin-1-yl)methyl)-1,3,4-oxadiazol-2-yl)-5-(trifluoromethyl)benzo[d]oxazol-2-amine]"
6,≤ 1000,"c1nnc(Nc2nc3ccc(C4CC4)cc3o2)o1 [Example 180, 6-Cyclopropyl-N-(1,3,4-oxadiazol-2-yl)benzo[d]ox-azol-2-amine]"
7,≤ 100,"Fc1cc2nc(Nc3nnco3)oc2cc1Cl [Example 47, 6-Chloro-5-fluoro-N-(1,3,4-oxadiazol-2-yl)benzo[d]oxazol-2-amine]"
8,≤ 100,"O=C(Nc1ccnc(F)c1)c1csc(Nc2nc3cc(C(F)(F)F)ccc3o2)n1 [Example 98, N-(2-fluoropyridin-4-yl)-2-((5-(trifluoromethyl)benzo[d]oxazol-2-yl)amino)thiazole-4-carboxamide]"
9,≤ 1000,"CC(C)c1nnc(Nc2nc3cc(C(F)(F)F)c(Cl)cc3o2)[nH]1 [Example 139, 6-Chloro-N-(5-isopropyl-4H-1,2,4-triazol-3-yl)-5-(trifluoromethyl)benzo[d]oxazol-2-amine]"
10,≤ 10000,"Cc1nnc(Nc2nc3c(C(F)(F)F)cccc3o2)o1 [Example 118, N-(5-Methyl-1,3,4-oxadiazol-2-yl)-4-(trifluoromethyl)benzo[d]oxazol-2-amine]"
11,≤ 1000,"O=C(NC1CC1)c1coc(Nc2nc3cc(C(F)(F)F)ccc3o2)n1 [Example 24, N-Cyclopropyl-2-((5-(trifluoromethyl)benzo[d]oxazol-2-yl)amino)oxazole-4-carboxamide]"
12,≤ 10000,"Clc1cccc2oc(Nc3nnc(CN4CCCC4)[nH]3)nc12 [Example 130, 4-Chloro-N-(5-(pyrrolidin-1-ylmethyl)-4H-1,2,4-triazol-3-yl)benzo[d]oxazol-2-amine]"
13,≤ 1000,"CNC(=O)c1csc(Nc2nc3cc(C(F)(F)F)ccc3o2)n1 [Example 2, N-Methyl-2-((5-(trifluoromethyl)benzo[d]oxazol-2-yl)amino)thiazole-4-carboxamide]"
14,≤ 1000,"Cc1nnc(Nc2nc3cc(C(F)(F)F)ccc3o2)o1 [Example 22, N-(5-Methyl-1,3,4-oxadiazol-2-yl)-5-(trifluoromethyl)benzo[d]oxazol-2-amine]"
